Measured values reported in patent publication US9365589B2, “C5, C6 oxacyclic-fused thiazine dioxide compounds as BACE inhibitors, compositions, and their use” (Merck Sharp & Dohme Corp., priority 2012, dated 2016).
Like-named read-outs stand apart in the source and are kept apart here.

Columns and labels:
[1] = target: purified human autoBACE-2 (Homo sapiens (Human), UniProt Q9Y5Z0); assay: BACE-2 Assay (BACE-HTRF assay); type: biochemical
Experimental: DMSO is present at 5% final concentration in the assay. Following laser excitation of sample wells at 320 nm, the fluorescence signal at 620 nm is collected for 400 ms following a 50 μs delay on a RUBYstar HTRF plate reader (BMG Labtechnologies). Raw RFU data is normalized to maximum (1.0 nM BACE/DMSO) and minimum (no enzyme/DMSO) RFU values. […] The Ki values are calculated from the IC50 using the Cheng-Prusoff equation.

[2] = target: soluble human BACE1 catalytic domain (Homo sapiens (Human), UniProt P56817); assay: BACE1 HTRF FRET Assay; type: biochemical; conditions: Ki calculated from IC50 using the Cheng-Prusoff equation; QSY7-APPswe-Eu substrate, pH 5.0
Description: A homogeneous time-resolved FRET assay can be used to determine IC50 values for inhibitors of the soluble human BACE1 catalytic domain. This assay monitors the increase of 620 nm fluorescence that resulted from BACE1 cleavage of an APPswedish APP^swe mutant peptide FRET substrate (QSY7-[…]-Europium-amide). This substrate contains an N-terminal QSY7 moiety that serves as a quencher of the C-terminal Europium fluorophore (620 nm Em). In the absence of enzyme activity, 620 nm fluorescence is low in the assay and increased linearly over 3 hours in the presence of uninhibited BACE1 enzyme Inhibition of BACE1 cleavage of the QSY7-APP^swe-Eu substrate by inhibitors is manifested as a suppression of 620 nm fluorescence.
Reactions are initiated by addition of 10 μl of 600 nM QSY7-APP^swe-Eu substrate (200 nM final) to give a final reaction volume of 30 μl in a 384 well Nunc HTRF plate. The reactions are incubated at 30° C. for 1.5 hours. The 620 nm fluorescence is then read on a Rubystar HTRF plate reader (BMG Labtechnologies) using a 50 millisecond delay followed by a 400 millisecond acquisition time window Inhibitor IC50 values are derived from non-linear regression analysis of concentration response curves.

Chain of soluble human BACE1 catalytic domain (P56817 75-416): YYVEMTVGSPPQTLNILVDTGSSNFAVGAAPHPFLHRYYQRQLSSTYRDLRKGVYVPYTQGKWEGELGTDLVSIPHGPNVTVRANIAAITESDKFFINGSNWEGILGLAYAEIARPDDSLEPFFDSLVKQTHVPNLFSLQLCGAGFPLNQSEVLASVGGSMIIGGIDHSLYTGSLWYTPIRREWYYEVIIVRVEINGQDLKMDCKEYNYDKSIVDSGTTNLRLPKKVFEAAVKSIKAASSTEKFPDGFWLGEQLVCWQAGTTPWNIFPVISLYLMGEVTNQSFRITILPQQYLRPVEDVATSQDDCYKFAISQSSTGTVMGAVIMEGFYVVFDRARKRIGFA
Chain of purified human autoBACE-2 (Q9Y5Z0 63-473 limits assumed): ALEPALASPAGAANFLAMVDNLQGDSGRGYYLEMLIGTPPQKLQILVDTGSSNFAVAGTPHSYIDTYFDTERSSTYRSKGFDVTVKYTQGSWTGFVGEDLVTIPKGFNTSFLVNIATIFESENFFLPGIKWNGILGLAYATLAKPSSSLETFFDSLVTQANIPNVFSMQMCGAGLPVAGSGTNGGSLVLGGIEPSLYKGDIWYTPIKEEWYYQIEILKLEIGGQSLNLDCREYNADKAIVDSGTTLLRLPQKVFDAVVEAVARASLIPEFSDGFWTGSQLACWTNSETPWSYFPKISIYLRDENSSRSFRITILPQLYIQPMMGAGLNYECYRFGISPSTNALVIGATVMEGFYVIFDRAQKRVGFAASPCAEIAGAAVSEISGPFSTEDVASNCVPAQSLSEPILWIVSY

SMILES | Ki ([1]; read-out: BACE2 Ki) [nM] | Ki [2] [nM] | Ki ([1]; BACE2 Ki (nM)) [nM]
CC1(C)C(=N)N[C@@]2(c3cc(NC(=O)C(F)F)ccc3F)COC[C@H]2S1(=O)=O [Example 1n] | 33 | 258 | 
COc1cnc(C(=O)Nc2ccc(F)c([C@]34COC(CF)[C@H]3S(=O)(=O)C(C)(C)C(=N)N4)c2)cn1 (single isomer, unassigned) [Example 4e] |  |  | 11
Cc1cc(C#N)cnc1C(=O)Nc1ccc(F)c([C@]23COC[C@H]2S(=O)(=O)C(C)(C)C(=N)N3)c1 [Example 1u] | 1 | 1 | 
CC1(C)C(=N)N[C@@]2(c3cc(NC(=O)c4ccc(C#N)cn4)ccc3F)COC[C@H]2S1(=O)=O [Example 1r] | 1 | 1 | 
CC1(C)C(=N)N[C@@]2(c3cc(NC(=O)c4ccc(OCF)cn4)ccc3F)COC[C@H]2S1(=O)=O [Example 1x] | 2 | 3 | 
COCC(=O)Nc1ccc(F)c([C@]23COC[C@H]2S(=O)(=O)C(C)(C)C(=N)N3)c1 [Example 1m] | 5 | 74 | 
Cn1ccc(C(=O)Nc2ccc(F)c([C@]34COC[C@H]3S(=O)(=O)C(C)(C)C(=N)N4)c2)n1 [Example 1e] | 2 | 13 | 
CC1(C)C(=N)N[C@@]2(c3cc(NC(=O)c4ccc(C(F)(F)F)cn4)ccc3F)COC[C@H]2S1(=O)=O [Example 1aa] | 8 | 3 | 
COc1cnc(C(=O)Nc2ccc(F)c([C@]34COC[C@H]3S(=O)(=O)C(C)(C)C(=N)N4)c2)c(C)n1 [Example 1t] | 6 | 10 | 
Cc1cc(C(=O)Nc2ccc(F)c([C@]34COC[C@H]3S(=O)(=O)C(C)(C)C(=N)N4)c2)on1 [Example 1i] | 93 | 559 | 
COc1cnc(C(=O)Nc2ccc(F)c([C@]34COC[C@H]3S(=O)(=O)C(C)(C)C(=N)N4)c2)cn1 [Example 1d] | 5 | 6.2 | 
CC1(C)C(=N)N[C@@]2(c3cc(NC(=O)c4ccc(F)cn4)ccc3F)COC(CF)[C@H]2S1(=O)=O (single isomer, unassigned) [Example 4b] |  | 42 | 18
COc1cnc(C(=O)Nc2ccc(F)c([C@]34COC[C@H]3S(=O)(=O)C(C)(C)C(=N)N4)c2)c(C)c1 [Example 1s] | 1 | 4 | 
Cc1nc(C(=O)Nc2ccc(F)c([C@]34COC[C@H]3S(=O)(=O)C(C)(C)C(=N)N4)c2)c(C)o1 [Example 1l] | 1 | 6 | 
CO[C@@H](C)C(=O)Nc1ccc(F)c([C@]23COC[C@H]2S(=O)(=O)C(C)(C)C(=N)N3)c1 [Example 1o] | 42 | 213 | 
COc1ccc(C(=O)Nc2ccc(F)c([C@]34COC[C@H]3S(=O)(=O)C(C)(C)C(=N)N4)c2)nc1 [Example 1c] | 3 | 5.8 | 
CC1(C)C(=N)N[C@@]2(c3cc(NC(=O)c4ccc(F)cn4)ccc3F)COC(CF)[C@H]2S1(=O)=O (single isomer, unassigned) [Example 4a] |  | 3 | 1
C#CCOc1cnc(C(=O)Nc2ccc(F)c([C@]34COC[C@H]3S(=O)(=O)C(C)(C)C(=N)N4)c2)cn1 [Example 1w] | 2 | 1 | 

SMILES | Ki ([1]; read-out: BACE2 Ki) [nM] | Ki [2] [nM] | Ki ([1]; BACE2 Ki (nM)) [nM]
CC1(C)C(=N)N[C@@]2(c3cc(NC(=O)c4ccc(F)cn4)ccc3F)COC[C@H]2S1(=O)=O [Example 1a] | 1 | 3.5 | 
C[C@@]1(C2CC2)C(=N)N[C@@]2(c3cc(NC(=O)c4ccc(F)cn4)ccc3F)COC[C@H]2S1(=O)=O [Example 13a] | 6 | 39 | 
CC1(C)C(=N)N[C@@]2(c3cc(NC(=O)c4cnc(C(F)(F)F)cn4)ccc3F)COC[C@H]2S1(=O)=O [Example 1q] | 35 | 13 | 
COc1cnc(C(=O)Nc2ccc(F)c([C@]34COC(CF)[C@H]3S(=O)(=O)C(C)(C)C(=N)N4)c2)cn1 (single isomer, unassigned) [Example 4h] |  |  | 476
CC1(C)C(=N)N[C@@]2(c3cc(NC(=O)c4cn5ccsc5n4)ccc3F)COC[C@H]2S1(=O)=O [Example 1g] | 3 | 25 | 
CC1(C)C(=N)N[C@@]2(c3cc(NC(=O)c4ncc(Cl)cc4F)ccc3F)COC[C@H]2S1(=O)=O [Example 1k] | 1 | 3 | 
Cn1cc(C(=O)Nc2ccc(F)c([C@]34COC[C@H]3S(=O)(=O)C(C)(C)C(=N)N4)c2)c(C(F)(F)F)n1 [Example 1j] | 309 | 1100 | 
C[C@]1(c2ccc(F)cc2)C(=N)N[C@@]2(c3cc(NC(=O)c4ccc(F)cn4)ccc3F)COC[C@H]2S1(=O)=O [Example 8b] |  | 1 | 1
CO[C@H](C)C(=O)Nc1ccc(F)c([C@]23COC[C@H]2S(=O)(=O)C(C)(C)C(=N)N3)c1 [Example 1p] | 16 | 151 | 
C[C@@]1(c2ccc(F)cc2)C(=N)N[C@@]2(c3cc(NC(=O)c4ccc(F)cn4)ccc3F)COC[C@H]2S1(=O)=O [Example 8a] |  | 84 | 9
CC1(C)C(=N)N[C@@]2(c3cc(NC(=O)c4cnc(OCCF)cn4)ccc3F)COC[C@H]2S1(=O)=O [Example 1h] | 18 | 7 | 
CC1(C)C(=N)N[C@@]2(c3cc(NC(=O)c4ccn(C(F)F)n4)ccc3F)COC[C@H]2S1(=O)=O [Example 1z] | 1 | 1 | 
C#CCOc1ccc(C(=O)Nc2ccc(F)c([C@]34COC[C@H]3S(=O)(=O)C(C)(C)C(=N)N4)c2)nc1 [Example 1y] | 7 | 1 | 
CC1(C)C(=N)N[C@@]2(c3cc(NC(=O)c4cnsn4)ccc3F)COC[C@H]2S1(=O)=O [Example 1v] | 1 | 8 | 
C[C@]1(C2CC2)C(=N)N[C@@]2(c3cc(NC(=O)c4ccc(F)cn4)ccc3F)COC[C@H]2S1(=O)=O [Example 13b] | 11 | 62 | 
CC1(C)C(=N)N[C@@]2(c3cc(NC(=O)c4ccc(Cl)cn4)ccc3F)COC[C@H]2S1(=O)=O [Example 1b] | 1 | 2.5 | 
Cc1cc(C(=O)Nc2ccc(F)c([C@]34COC[C@H]3S(=O)(=O)C(C)(C)C(=N)N4)c2)no1 [Example 1f] | 24 | 201 | 
